This is an account of results in paper PMC7838189, “Natural podophyllotoxin analog 4DPG attenuates EMT and colorectal cancer progression via activation of checkpoint kinase 2” (Cell Death Discovery, 2021).

The subject of series [1] is orthotopic rat colorectal carcinoma. Conditions: 25 mg/kg thrice a week for 3 weeks. An excerpt:
To examine the antitumor and anti-metastatic efficacy of 4DPG in vivo, we employed a carcinogen-induced orthotopic rat colorectal carcinoma model. […] The schematic representation briefly describes the steps involved in the generation of orthotopic colorectal tumors along with the treatment strategy and further analysis (details in “Materials and methods”). The animals were euthanized at the end of the experiment and evaluated for tumor and metastatic burden (Fig. 4A). […] To validate whether our in vitro observations on mechanistic inhibition of EMT and invasion by 4DPG hold true in vivo, we performed immunohistochemical analysis of the tumor tissues acquired from the saline and 4DPG-treated animal groups.
A Model depicting the procedure adopted for generating the carcinogen-induced orthotopic rat CRC model, treatment strategies of 4DPG, evaluation of tumor burden, and further biochemical analysis. B Representative images of large bowel showing the colorectal tumor growth in saline, 5-FU (25 mg/kg), and 4DPG (25 mg/kg) treated groups of animals. C, D Quantification of tumor volume and number of polyps per rat in above groups of animals. n = 6 rats per group, error bars: mean ± SD; *P < 0.05, **P < 0.01, ***P < 0.001. E Representative images of the lungs dissected from the above groups of animals showing metastatic tumor burden. Orange arrows indicating bumps of secondary tumors over each lobe of lungs. F, G Quantification of a number of macroscopic secondary tumors over the lung tissues and lung weight in the above groups of animals. n = 6 rats per group, error bars, mean ± SD; **P < 0.01, ***P < 0.001. […] Scale bar: 50 µm. I Western blots depicting expression of p-Chk2 (Thr68), Chk2, p53, p-Vimentin (Ser38), and Vimentin in tumor tissues obtained from saline- and 4DPG-treated groups of animals. β-Actin expression was taken as endogenous loading control. J Densitometry analysis of the above western blot bands portraying relative protein expression of the markers presented. n = 3, error bars: mean ± SD; **P < 0.01, ***P < 0.001.
Animal studies were performed following the guidelines approved by Institutional Animal Ethics Committee (IAEC No. 51/02/15) of CSIR-Indian Institute of Integrative Medicine, Jammu, India. The experiment was performed according to our standardized protocol described previously with necessary modifications. Five-weeks-old healthy male Wistar rats (body weight 150–200 g) were maintained in aseptic condition with free access to food and water. Animals were randomized into three groups, with six animals per group. All the rats received intrarectal instillation of 0.5 mL of freshly prepared 0.4% aqueous solution of N-methyl-N-nitrosourea (MNU) thrice a week for 3 weeks, for the orthotopic induction of colorectal tumors. The solution was injected using sterile syringe with attached 8-cm long rubber catheter tube inserted two-thirds into the colon lumen through anal orifice, as described previously. The animals were kept under continuous monitoring, and the body weight was measured once per week. Following 22 weeks after the initiation of MNU administration, treatment regimens were started by administering 5-FU (25 mg/kg), and 4DPG (25 mg/kg) thrice a week for 3 weeks. The control and treatment groups of animals were dosed separately by three independent investigators and the outcomes were assessed by a fourth investigator blind about the dosing process and treatment regimen.

Series [2] relates to SW-620/5-FU-R cells. Nature of the series: Acquired 5-FU resistance (MTT cytotoxicity assay). Format: cell-based. Conditions: cells selected with increasing 5-FU for at least 20 weeks. The procedure: (§1) Previously described procedure by Shukla et al. was followed with minor modifications. In brief, wild-type CRC cells (HCT-116, SW-620, and HT-29) were cultured with increasing concentrations of 5-FU for at least 20 weeks. The acquired drug resistance was tested periodically by determining the half maximal inhibitory concentration (IC50) of 5-FU through MTT cytotoxicity assays.
(§2) The experiments were performed using the wild-type and 5-FU-RCRC cells following our standardized protocols, as described previously[56],[57].

For series [3], the system named is HCT-116/5-FU-R cells. Put plainly: Acquired 5-FU resistance (MTT cytotoxicity assay). Format: cell-based. The following applies: cells selected with increasing 5-FU for at least 20 weeks. As for the experimental part:
as §1, §2

Series [4] relates to HT-29/5-FU-R cells. Put plainly: Acquired 5-FU resistance (MTT cytotoxicity assay). The format is cell-based. Conditions: cells selected with increasing 5-FU for at least 20 weeks. As for the experimental part: as §1, §2
The test system of series [5] is HCT-116, SW-620, and HT-29 cells. Nature of the series: Western blotting of p-Vimentin/Vimentin after transient 5-FU treatment. Conditions: 5-FU 1 µM (sub-toxic), 24 h; range over HCT-116, SW-620, HT-29 cells; densitometry. Format: cell-based. An excerpt:
Vimentin belongs to the family of intermediate filament proteins that are known to function in maintaining the shape as well as the integrity of the normal mesenchymal cells[33],[34]. However, it has been established to regulate the cell shape and migration capability during EMT, a phenomenon critical to metastasis of cancer cells[35],[36]. To investigate any plausible contribution of Vimentin to 5-FU resistance in CRC, we treated a panel of three epithelial colorectal carcinoma cell lines (HCT-116, SW-620, and HT-29) with increasing concentrations of the said drug, transiently (24 h). Western blots were generated for the whole-cell lysates obtained from the above set of experiments. Since the phosphorylated Vimentin is an important signal transducer during the EMT process, we analyzed p-Vimentin (ser38) as well as total Vimentin levels in these lysates.
Fig. 1 Vimentin activation and the onset of EMT in CRC cells transiently exposed to 5-FU, as well as in 5-FU-resistant population. […] F Quantification of the number of invaded cells per field from the above invasion assay experiment. n = 3, error bars: mean ± SD; ***P < 0.001. […]
We adhered to the previously published protocol for western blotting. […] Bradford assay was performed to quantify the protein concentration. […]

Series [6] deals with SW-620/5-FU-R cells. Put plainly: Immunocytochemistry of Vimentin. The format is cell-based. The following applies: PV1019 alone, 48 h. From the text: 4DPG, a podophyllotoxin class of natural product anticancer compound (Supplementary Fig. S2A) has been recently described by our research group for its potent antitumor and anti-metastatic properties against aggressive cancers[31],[32]. Further, 4DPG augments phosphorylation and activation of Chk2 (Thr68) leading to suppression of EMT and invasiveness of p53-defective cancer cells. To investigate the effect of 4DPG on phosphorylation and expression levels of Chk2 in HCT-116/5-FU-R, SW-620/5-FU-R, and HT-29/5-FU-R cells, we treated these cells for 48 h with increasing concentrations of the compound, and whole-cell lysates were subjected to western blotting analysis. […] To determine the effect of 4DPG on the invasion abilities of these 5-FU-R cells, we performed in situ fluorescent gelatin degradation assay following our pre-standardized protocol[31],[37]. In physiological conditions, this assay mimics the extracellular matrix degradation by aggressive tumor cells undergoing invasion–metastasis process.
(§3) To examine whether 4DPG-mediated repression of Vimentin and invasiveness is a Chk2-dependent process, we performed genetic silencing of endogenous Chk2 in the 5-FU-R cells using target-specific SiRNAs.
(§4) Fig. 3 Chk2-dependent role of 4DPG in modulating p53 and repressing Vimentin expression in 5-FU-R cells. A Immunocytochemistry results showing the Vimentin expression level in SW-620/5-FU-R cells treated/transfected with scramble, SiChk2, scramble plus 4DPG, SiChk2 plus 4DPG, vehicle, PV1019, 4DPG, and PV1019 plus 4DPG for 48 h. Scale bars: 50 µm. […] C Matrigel invasion assay results showing invaded HCT-116/5-FU-R and SW-620/5-FU-R cells following 48 h of transient transfection with GFP and GFP-Chk2 plasmid construct. Scale bars: 50 µm. D Quantification of the number of invaded cells per field from the above experimental conditions. n = 3, error bars, mean ± SD; *P < 0.05, ***P < 0.001. E Immunocytochemistry results displaying Vimentin expression levels in HCT-116/5-FU-R and SW-620/5-FU-R cells after 48 h of transient transfection with pCDNA3 and/or HA-Chk2 plasmid construct. Scale bars: 50 µm. F Immunoprecipitation with Vimentin or p53 followed by western blotting analysis of p53 in SW-620/5-FU-R cells treated with vehicle and/or 4DPG (300 nM) for 48 h. G Cytosolic (left panel) and nuclear (right panel) extracts of SW-620/5-FU-R cells treated with vehicle and/or 4DPG (300 nM) for 48 h showing protein expression of Vimentin and p53. Tubulin and lamin expression was considered as endogenous loading controls for cytosolic and nuclear fractions, respectively.
We followed the standard protocol with some modifications for immunocytochemistry[56],[58]. In brief, cells, at a density of 4 × 10^5 cells/well, were seeded over the sterile coverslips placed in six-well plates. Following the respective treatment, cells were washed thrice with PBS. Next, the cells were fixed with 4% paraformaldehyde (pH = 7.4) for 15 min, permeabilized with 0.3% Triton X-100 for 10 min, and then blocked with 1% goat serum for 30 min. Consequently, the cells were incubated with anti-Vimentin antibody overnight at 4 °C, at a dilution of 1:100, followed by washing with PBST and further incubation with secondary anti-rabbit Alexa Fluor 488 (1:750 dilution). After subsequent washing and mounting, the images were captured at ×20 magnification under Floid Cell Imaging Station (Invitrogen).

Series [7] relates to HCT-116/5-FU-R cells. Put plainly: Matrigel invasion assay. The format is cell-based. The following applies: PV1019-treated, 48 h.
Source text: as §3
as §4, with “G Cytosolic (left panel) and nuclear (right panel) extracts of SW-620/5-FU-R cells treated with vehicle and/or 4DPG (300 nM) for 48 h showing protein expression of Vimentin and p53. Tubulin and lamin expression was considered as endogenous loading controls for cytosolic and nuclear fractions, respectively.” left out

On to `O=c1[nH]cc(F)c(=O)[nH]1` [5-FU, 5-fluorouracil], for which, in series [1], the lung metastases result is listed as “could not restrict the metastatic spread”. In addition, the “average number of polyps” value in series [1] (control group 16) turned out to be 8. The molecule also showed a mean tumor volume in series [1] (saline control 820.6 mm^3) of 231 mm^3. For the same molecule, the entries for the “acquired resistance up to (5-FU concentration)” value in series [2], in series [3] and in series [4] were no more than 60 µM, “up to 50 µM” and no more than 45 µM, respectively. Moreover, in series [5], the “boost in p-Vimentin (ser38)” value is 2–7.8 fold. Besides, the “increase in Vimentin expression level” value in series [5] was 2.1–8.5 fold.

On to `CC(=NNC(=N)N)c1ccc(NC(=O)c2cc3cccc([N+](=O)[O-])c3[nH]2)cc1` [PV1019, 7-nitro-1H-indole-2-carboxylic acid {4-[1-(guanidinohydrazone)-ethyl]-phenyl}-amide, reference compound], for which the “Vimentin level (immunocytochemistry)” value in series [6] was “increased Vimentin level”. For the same molecule, the “number of invaded cells” value in series [7] is “remarkable increase”.
